Measurements published in patent US12616203B2, “Use of 3-isoxazolidinones compounds as selective herbicides” (FMC Corporation, priority 2014, dated 2026).
Where two headings read alike, the source gives them in different places.

How the values were obtained:
[1] = test system: Palmer amaranth (PA); assay: PRE greenhouse, 2,4-DC + sulfentrazone, % control; format: in vivo, Amaranthus palmeri; settings: 28 DAT, g ai/ha by row: r7-35 2,4-DC 31.2/62.5/125/250/375 (3 rows each) + sulfentrazone 105/210/315 (cycling), r37-41 2,4-DC 31.2/62.5/125/250/375, r42-44 sulfentrazone 105/210/315
Protocol: (§1) Test compositions containing 2,4-DC Example 1B and sulfentrazone (Spartan® 4F, 39.6% active ingredient, FMC Corp.) and mixtures of 2-(2,4-dichlorophenyl)methyl-4,4-dimethyl-3-isoxazolidinone and sulfentrazone, were diluted with water to provide the appropriate test rate concentration.
(§2) The test weeds were Pennsylvania smartweed (PS) (Polygonum pennsylvanicum), Palmer amaranth (PA) (Amaranthus palmeri), velvetleaf (VL) (Abutilon theophrasti), green foxtail (GF) (Setaria viridis), morningglory (MG) (Ipomoea spp.), yellow nutsedge (YN) (Cyperus esculentus), purple nutsedge (PN) (Cyperus rotundus), and benghal dayflower (BD) (Commelina benghalensis). Crops included in the evaluation were corn, wheat, and cowpea. […]
(§3) The application rates are those shown in Table 3, 3A, an d 3B below for the individual herbicidal solutions and the herbicide compositions of the present invention. […] The control of weeds was evaluated in each experimental test at 28 days after treatment (DAT), 14 DAT for crops. […] Percent weed control was determined by a method similar to the 0 to 100 rating system disclosed in “Research Methods in Weed Science,” 2nd ed., B. Truelove, Ed.; Southern Weed Science Society; Auburn University, Auburn, Ala., 1977.

[2] = test system: Pennsylvania smartweed (PS); assay: PRE greenhouse, 2,4-DC + sulfentrazone (Tables 3-3B), % control; format: in vivo, Polygonum pennsylvanicum; settings: 28 DAT, g ai/ha by row: r7-35 2,4-DC 31.2/62.5/125/250/375 (3 rows each) + sulfentrazone 105/210/315 (cycling), r37-41 2,4-DC 31.2/62.5/125/250/375, r42-44 sulfentrazone 105/210/315
Protocol: as §1, §2, §3

[3] = test system: yellow nutsedge (YN); assay: PRE greenhouse, 2,4-DC + sulfentrazone, % control; format: in vivo, Cyperus esculentus; settings: 28 DAT, g ai/ha by row: r8-16 2,4-DC 50/100/200 (3 rows each) + sulfentrazone 105/210/315 (cycling)
Protocol: as §1
(§4) The test weeds were Pennsylvania smartweed (PS) (Polygonum pennsylvanicum), Palmer amaranth (PA) (Amaranthus palmeri), velvetleaf (VL) (Abutilon theophrasti), green foxtail (GF) (Setaria viridis), morningglory (MG) (Ipomoea spp.), yellow nutsedge (YN) (Cyperus esculentus), purple nutsedge (PN) (Cyperus rotundus), and benghal dayflower (BD) (Commelina benghalensis). Crops included in the evaluation were corn, wheat, and cowpea.
(§5) For pre-emergence testing, four disposable fiber flats (6″ by 10″) for each rate of application of each herbicide solution were filled with top soil, to which seeds of each species were planted in furrows made by a template pressed on the top of the soil. The furrows with crop/weed seeds were covered with soil and were watered well before application of the test compounds. Flats designated for treatment were placed in a spray chamber having a static platform and a movable sprayer and height of the spray nozzle was 10.5 inches above the soil level. Once the sprayer was calibrated using water for spray volume of 30 gallons per acre, flats were sprayed with sprayer at a speed to receive a coverage equivalent of 30 gallons per acre.
The application rates are those shown in Table 3, 3A, an d 3B below for the individual herbicidal solutions and the herbicide compositions of the present invention. The pre-emergence flats were immediately placed in the greenhouse and watered lightly after treatment for herbicide activation. Thereafter they were regularly watered and feterilized for the duration of the test. The control of weeds was evaluated in each experimental test at 28 days after treatment (DAT), 14 DAT for crops. The results, shown as an average of the replications, were compared with results observed in untreated control flats in the same tests. Percent weed control was determined by a method similar to the 0 to 100 rating system disclosed in “Research Methods in Weed Science,” 2nd ed., B. Truelove, Ed.; Southern Weed Science Society; Auburn University, Auburn, Ala., 1977.

[4] = test system: weeds; corn, wheat, cotton, cowpea, and bush bean; assay: Ex42 PRE greenhouse; format: in vivo; settings: crop and rate in the words
Source text: Thereafter flats were watered and fertilized routinely.

[5] = test system: benghal dayflower (BD); assay: PRE greenhouse, 2,4-DC + sulfentrazone, % control; format: in vivo, Commelina benghalensis; settings: 28 DAT, g ai/ha by row: r8-16 2,4-DC 50/100/200 (3 rows each) + sulfentrazone 105/210/315 (cycling)
Protocol: as §1, §4, §5
The application rates are those shown in Table 3, 3A, an d 3B below for the individual herbicidal solutions and the herbicide compositions of the present invention. The pre-emergence flats were immediately placed in the greenhouse and watered lightly after treatment for herbicide activation. […] The control of weeds was evaluated in each experimental test at 28 days after treatment (DAT), 14 DAT for crops. […] Percent weed control was determined by a method similar to the 0 to 100 rating system disclosed in “Research Methods in Weed Science,” 2nd ed., B. Truelove, Ed.; Southern Weed Science Society; Auburn University, Auburn, Ala., 1977.

[6] = test system: weeds; assay: Ex10 PRE greenhouse; format: in vivo; settings: 28 DAT, weed and rate in the words
Source text: Treatments 1-12 of 2,4-DC and aclonifen tank-mix combinations follow same rates listed above. […] Sulfentrazone (Spartan 4F® 39.6%) at 280 g ai/ha, pendimethalin (Prowl 3.3®EC, 37.4%) at 784 g ai/ha, or S-metolachlor (Dual II Magnum® 82.4%) at 1084 g ai/ha were applied as commercial standards. Treatments were replicated 3 times and flats were watered after planting but before the treatment and lightly watered after treatment application. Thereafter flats were watered and fertilized routinely. […] Shepherd's-purse was rated at 21 and 28 DAT only, due to delayed emergence.

[7] = test system: sedges; assay: Ex26 PRE greenhouse; format: in vivo; settings: 28 DAT, weed and rate in the words
Source text: Treatments were applied at the time of planting to yellow nutsedge, purple nutsedge, and benghal dayflower. […] Flats were watered and fertilized routinely after treatment application.

[8] = test system: green foxtail (GF); assay: PRE greenhouse, 2,4-DC + sulfentrazone, % control; format: in vivo, Setaria viridis; settings: 28 DAT, g ai/ha by row: r7-35 2,4-DC 31.2/62.5/125/250/375 (3 rows each) + sulfentrazone 105/210/315 (cycling)
Protocol: as §1, §2, §3

[9] = test system: purple nutsedge (PN); assay: PRE greenhouse, 2,4-DC + sulfentrazone, % control; format: in vivo, Cyperus rotundus; settings: 28 DAT, g ai/ha by row: r8-16 2,4-DC 50/100/200 (3 rows each) + sulfentrazone 105/210/315 (cycling)
Protocol: as §1, §2, §3

[10] = test system: weeds; Sugarcane (CTC20); assay: Ex23 PRE greenhouse; settings: 28 DAT, weed and rate in the words
Protocol: (Ipomoea spp). The tested crop in this study was Sugarcane (CTC20).
Sugarcane was direct seeded into 6″ plastic pots using 3-4″ sugarcane setts, oriented bud up, with bud leaf shield removed. 2,4 DC and sulfentrazone were applied alone or combined as tank-mix at each rate mentioned below. […] Treatments were replicated 3 times. […] Thereafter flats were watered and fertilized routinely. […] Visual percent sugarcane injury was recorded at 21 and 28 DAT, using a scale of 0 (no injury, observed as bleaching, stunting or necrosis) to 100 (complete plant death).

[11] = test system: morningglory (MG); assay: PRE greenhouse, 2,4-DC + sulfentrazone, % control; format: in vivo, Ipomoea spp.; settings: 28 DAT, g ai/ha by row: r7-35 2,4-DC 31.2/62.5/125/250/375 (3 rows each) + sulfentrazone 105/210/315 (cycling), r37-41 2,4-DC 31.2/62.5/125/250/375, r42-44 sulfentrazone 105/210/315
Protocol: as §1, §2, §3

[12] = test system: Corn; settings: 21 DAT, PRE
Source text: (Ipomoea spp.); Italian ryegrass (Lolium perenne L. ssp. multiflorum, LOLMU). Crops tested included corn, wheat, cotton, cowpea, and bush bean.
Palmer amaranth, common ragweed, Pennsylvania smartweed, velvetleaf, wild oat, green foxtail, morningglory, and Italian ryegrass were screened. […] Thereafter flats were watered and fertilized routinely.

[13] = test system: velvetleaf (VL); assay: PRE greenhouse, 2,4-DC + sulfentrazone, % control; format: in vivo, Abutilon theophrasti; settings: 28 DAT, g ai/ha by row: r7-35 2,4-DC 31.2/62.5/125/250/375 (3 rows each) + sulfentrazone 105/210/315 (cycling), r37-41 2,4-DC 31.2/62.5/125/250/375, r42-44 sulfentrazone 105/210/315
Protocol: as §1, §2, §3

[14] = r17-19 2,4-DC 50/100/200, r20-22 sulfentrazone 105/210/315, 105 g ai/ha
[15] = r17-19 2,4-DC 50/100/200, r20-22 sulfentrazone 105/210/315, 210 g ai/ha
[16] = r17-19 2,4-DC 50/100/200, r20-22 sulfentrazone 105/210/315, 315 g ai/ha

Cc1nn(-c2cc(NS(C)(=O)=O)c(Cl)cc2Cl)c(=O)n1C(F)F [sulfentrazone]
% Control PA [1]: 100%
% Control PS [2]: 100%
% Control YN [3, 14]: 85%
% Control YN [3, 15]: 95%
% Control YN [3, 16]: 100%
crop safety in words [4]: alone was safe on corn and bush bean only at 105 g, wheat and cowpea at 105 or 210 g 14 DAT
% Control BD [5, 14]: 72%
% Control BD [5, 15]: 88%
% Control BD [5, 16]: 90%
weed control in words [6]: at 280 g provided control of all weeds except quackgrass, annual bluegrass, and blackgrass
weed control in words [7]: alone controlled yellow nutsedge at all rates, benghal dayflower at 210 or 315 g and did not control purple nutsedge at any rate
% Control GF ([8]; r37-41 2,4-DC 31.2/62.5/125/250/375, r42-44 sulfentrazone 105/210/315, 105 g ai/ha): 84%
% Control GF ([8]; r37-41 2,4-DC 31.2/62.5/125/250/375, r42-44 sulfentrazone 105/210/315, 210 g ai/ha): 100%
% Control PN [9, 14]: 77%
% Control PN [9, 16]: 83%
weed control in words [10]: alone controlled hairy beggarticks at 315 g; all other weeds were controlled with all rates
% Control MG [11]: 100%
crop injury, Sulfentrazone alone ([12]; sulfentrazone 105 g ai/ha): 3%
crop injury, Sulfentrazone alone ([12]; sulfentrazone 210 g ai/ha): 10%
crop injury, Sulfentrazone alone ([12]; sulfentrazone 315 g ai/ha): 38%
% Control VL [13]: 100%
